Test results taken from patent US11472843B2, “Malacidins and methods of use” (The Rockefeller University, priority 2017, dated 2022).

Key:
MRSA USA300 = assay: Membrane leakage assay (SYTOX green); assay type: cell-based, Staphylococcus aureus; conditions: 20 μg ml^−1
Experimental: The effects of malacidin on membrane integrity was assessed using SYTOX green. In brief, single colonies of MRSA USA300 were grown in LB media with and without 15 mM CaCl2 to an OD600 nm of 0.35. Nine hundred microlitres of cells were mixed with 100 μL of 17 μM SYTOX green dye (Thermo Fisher). The resulting mixture was incubated for 5 min at 22° C., and then distributed to a microtiter plate at 50 μl per well. An initial reading of fluorescence pre-antibiotic addition was measured at excitation and emission wavelengths of 488 nm and 523 nm, respectively. Fifty microlitres of antibiotics was added to respective wells at a final concentration of 20 μg ml^−1. Measurements were immediately collected for 10 min. To assess the effects of malacidin on membrane depolarization, similar assays were set up using the membrane potential probe, DiBAC4 (bis-(1,3-dibutylbarbituric acid)trimethine oxonol). Single colonies of MRSA USA300 were grown in LB media with and without 15 mM CaCl2 to an OD600 nm of 0.35. Nine hundred microlitres of cells were mixed with 100 μl of 20 μg ml DiBAC4dye (Thermo Fisher). The resulting mixture was incubated for 5 min at 22° C., and then distributed to a microtiter plate at 50 μl per well. An initial reading of fluorescence pre-antibiotic addition was measured at excitation and emission wavelengths of 492 nm and 515 nm, respectively. Fifty microlitres of antibiotics was added to respective wells at a final concentration of 20 μg ml^−1. Measurements were immediately collected for 10 min. Representative examples from three technical replicates are shown.

[1] = test system: Acinetobacter baumannii ATCC 17978; assay: MIC assay, A. baumannii; assay type: cell-based; conditions: range of at least three independent experiments
Experimental: (§1) MIC assays were performed in duplicate in 96-well microtiter plates on the basis of the protocol recommended by the Clinical and Laboratory Standards Institute (Cockerill, 2012, Clinical and Laboratory Standards Institute). All presented data are the average of at least three independent assays. Stock solutions of malacidin or daptomycin (2 mg ml^−1 in H2O) were added to the first well in a row and serially diluted (twofold per transfer) across the microtiter plate. CaCl2 was supplemented to media at a final concentration of 15 mM and fetal bovine serum (ATCC) was added to media (1:10) to test the effect of serum. Overnight cultures of bacteria were diluted 5,000-fold, and 50 μl was used as an inoculum in each well. MIC values were determined by visual inspection after 18 h incubation (30° C., static growth). For the enhanced calcium titration experiments, standard MIC assays were performed with methicillin-resistant Staphylococcus aureus (MRSA) PFGE strain type USA300 in media supplemented with CaCl2 at: 25.0, 18.8, 14.1, 7.03, 3.52, 2.50, 1.76, 0.880, 0.440, 0.250 and 0 mM. To assess the effects of monovalent and divalent cations on malacidin activity, standard MIC assays were performed with MRSA USA300 in media supplemented with 15 mM CaCl2, MgCl2, MnCl2, ZnCl2, SrCl2, NaCl and KCl. To evaluate the effects of pulmonary surfactants on activity against a community-acquired pneumonia-causing pathogen, standard MIC assays were performed with Streptococcus pneumoniae TCH8431 in media supplemented with both 15 mM CaCl1 and Survanta (beractant) at a final concentration of 5, 1, 0.5, 0.25 or 0% (volume/volume (v/v) percent).

S. aureus NRS108 = assay: MIC assay, S. aureus NRS108; assay type: cell-based, Staphylococcus aureus; conditions: β-lactams
Experimental: as §1

[2] = test system: Methicillin-resistant Staphylococcus aureus strain MW2; assay: Rat cutaneous wound infection model; assay type: in vivo, Sprague Dawley rats; conditions: topical, 0.5 mg daily in 25 mM CaCl2
Experimental: Methicillin-resistant Staphylococcus aureus strain MW2 was grown in Mueller Hinton broth at 37° C. with shaking overnight. The culture was centrifuged, supernatant aspirated and the bacteria were gently washed once in sterile saline. The optical density was determined at 600 nm. The bacterial suspension was diluted to provide a challenge inoculum of approximately 500 CFU per wound in a volume of 0.05 ml in sterile 0.9% NaCl. The inoculum count was verified by viable counts on Mannitol Salt Agar plates spread with proper dilutions of the inoculum and incubated at 37° C. for 24-48 h. For the wound infection model, 8-week-old male (˜200 g) Sprague Dawley rats were given two wounds each. Two rats were used at each time point (day 1 and day 3) for each treatment group for a total of 4 rats (8 wounds) per drug. This sample size was statistically calculated on the basis of previous in-house wound burden studies comparing vehicle-treated groups with antibiotic controls. Rats were randomly selected into the treatment groups. […] At 1 day and 3 days post infection, the rats were humanely euthanized and wounds were excised and assessed for bacterial burdens by plating on MSA. […] Abnormal clinical signs were recorded if observed.

S. aureus BAA-42 = assay: MIC assay, S. aureus BAA-42; assay type: cell-based, Staphylococcus aureus; conditions: β-lactams
Experimental: as §1

[3] = test system: Lactobacillus rhamnosus NCTC 13031; assay: MIC assay, L. rhamnosus; assay type: cell-based
Experimental: as §1, with “To evaluate the effects of pulmonary surfactants on activity against a community-acquired pneumonia-causing pathogen, standard MIC assays were performed with Streptococcus pneumoniae TCH8431 in media supplemented with both 15 mM CaCl1 and Survanta (beractant) at a final concentration of 5, 1, 0.5, 0.25 or 0% (volume/volume (v/v) percent).” left out

[4] = test system: Cryptococcus neoformans ATCC 32045; assay: MIC assay, C. neoformans; assay type: cell-based
Experimental: as §1

[5] = test system: Candida albicans ATCC 1884; assay: MIC assay, C. albicans; assay type: cell-based
Experimental: as §1

Substance: malacidin A
- Membrane leakage (SYTOX green or DiBAC4) (MRSA USA300; absence of calcium supplementation): No membrane leakage
- Membrane leakage (SYTOX green fluorescence) (MRSA USA300; with calcium (15 mM CaCl2)): does not cause MRSA membrane leakage
- MIC [1]: >100 mg/L
- MIC (S. aureus NRS108; S. aureus NRS 108, gentamicin, kanamycin, 15 mM CaCl2): 0.2-0.8 μg m1^−1
- MIC (S. aureus NRS108; Staphylococcus aureus NRS108, Gentamicin, Kanamycin): 0.2 to 0.8 µg/mL
- Bacterial burden in the wounds ([2]; 24 hours post infection): no observed bacterial burdens
- Bacterial burden in the wounds ([2]; 72 hours post infection): no observed bacterial burdens
- MIC (S. aureus BAA-42; S. aureus BAA-42, 15 mM CaCl2): 0.2-0.8 μg m1^−1
- MIC (S. aureus BAA-42; Staphylococcus aureus BAA-42): 0.2 to 0.8 µg/mL
- MIC ([3]; L. rhamnosus, 15 mM CaCl2): 0.1-0.2 μg m1^−1
- MIC ([3]; Lactobacillus rhamnosus NCTC 13031): 0.1 to 0.2 µg/mL
- MIC ([4]; C. neoformans, 15 mM CaCl2): >100 μg m1^−1
- MIC ([4]; Cryptococcus neoformans ATCC 32045): >100 µg/mL
- MIC ([5]; C. albicans, 15 mM CaCl2): >100 μg m1^−1
- MIC ([5]; Candida albicans ATCC 1884): >100 µg/mL
